Measured values taken from publication PMC11331448 (Journal of chemical information and modeling, 2024).

Biological target: BChE (Homo sapiens, UniProt P06276)
Conditions: BChE versus AChE inhibition, colorimetric kits

BChE, sequence (P06276 29-602, species assumed): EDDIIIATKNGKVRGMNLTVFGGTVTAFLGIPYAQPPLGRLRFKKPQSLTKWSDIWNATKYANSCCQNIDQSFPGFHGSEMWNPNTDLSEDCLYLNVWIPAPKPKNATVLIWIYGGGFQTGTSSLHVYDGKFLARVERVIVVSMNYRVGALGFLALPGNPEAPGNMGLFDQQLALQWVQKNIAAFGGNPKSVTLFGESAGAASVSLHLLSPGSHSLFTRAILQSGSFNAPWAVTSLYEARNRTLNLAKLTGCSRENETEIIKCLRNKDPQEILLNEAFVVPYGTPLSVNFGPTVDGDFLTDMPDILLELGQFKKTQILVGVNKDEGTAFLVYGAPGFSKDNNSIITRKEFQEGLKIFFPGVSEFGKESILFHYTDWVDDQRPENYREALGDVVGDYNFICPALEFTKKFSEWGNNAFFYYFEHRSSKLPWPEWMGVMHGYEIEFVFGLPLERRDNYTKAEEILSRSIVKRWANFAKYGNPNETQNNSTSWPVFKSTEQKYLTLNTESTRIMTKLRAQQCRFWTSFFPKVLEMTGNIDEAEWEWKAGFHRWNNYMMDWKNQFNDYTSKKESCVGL

`OC(CN1CCCCC1)c1c[nH]c2ccccc12` (stereo not shown) [CPI7075, 1-(1H-indol-3-yl)-2-(piperidin-1-yl)ethanol] was tested, and the “BChE selectivity in vitro” value was “selective BChE inhibitors”.
